In BindingDB's records for doi:10.1021/jm0205752 (University of Queensland, 2004):

Target: T1, Alpha-2A adrenergic receptor [16-465] (Rattus norvegicus, UniProt P22909)
T1 construct: 16-465
T1 sequence (P22909 whole entry): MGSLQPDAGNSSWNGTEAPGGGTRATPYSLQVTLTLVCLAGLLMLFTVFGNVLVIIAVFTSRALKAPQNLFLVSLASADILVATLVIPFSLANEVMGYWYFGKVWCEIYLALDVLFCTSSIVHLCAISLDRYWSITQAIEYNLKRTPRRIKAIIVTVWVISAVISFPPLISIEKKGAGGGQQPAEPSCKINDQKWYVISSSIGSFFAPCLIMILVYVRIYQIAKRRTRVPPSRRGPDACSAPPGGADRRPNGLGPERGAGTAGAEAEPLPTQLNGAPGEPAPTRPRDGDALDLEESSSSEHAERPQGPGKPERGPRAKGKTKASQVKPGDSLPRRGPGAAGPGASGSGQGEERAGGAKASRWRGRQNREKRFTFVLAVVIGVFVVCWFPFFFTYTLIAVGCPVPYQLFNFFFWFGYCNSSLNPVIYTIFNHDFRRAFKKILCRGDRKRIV
Assay: alpha-Adrenoceptor Radioligand Binding Assay
Conditions: pH 7.7; 25 °C
Procedure: The binding affinity of compound was evaluated using [3H] Clonidine as ligand in competition binding experiments. Nonspecific binding was determined as the concentration of ligand bound in the presence of 2 uM phentolamine. Ki values were determined by the equation: Ki = IC50/(1 + [clonidine]/KD).

## NS(=O)(=O)c1ccc2c(c1)CNCC2 [1,2,3,4-tetrahydroisoquinoline-7-sulfonamide]
  Ki: 100 µM
